{"source": "patent US4575498A", "about": "“Method for restoring depleted purine nucleotide pools” (priority 1983, dated 1986)", "key": {"cardiovascular system": {"test_system": "cardiovascular system", "conditions": "prior art statement; cited from earlier work"}, "[1]": {"biological_target": "T1, adenylosuccinate lyase (cardiac muscle) (Mus musculus, UniProt P54822)", "T1 construct": "the hearts and gastrocnemius muscles were excised, weighed, and homogenized to a slurry; from tissue; host or cells: heart of six-week-old C57BL/6J mice; dialyzed 10,000×g supernatant", "T1 sequence (P54822 2-484 limits assumed)": "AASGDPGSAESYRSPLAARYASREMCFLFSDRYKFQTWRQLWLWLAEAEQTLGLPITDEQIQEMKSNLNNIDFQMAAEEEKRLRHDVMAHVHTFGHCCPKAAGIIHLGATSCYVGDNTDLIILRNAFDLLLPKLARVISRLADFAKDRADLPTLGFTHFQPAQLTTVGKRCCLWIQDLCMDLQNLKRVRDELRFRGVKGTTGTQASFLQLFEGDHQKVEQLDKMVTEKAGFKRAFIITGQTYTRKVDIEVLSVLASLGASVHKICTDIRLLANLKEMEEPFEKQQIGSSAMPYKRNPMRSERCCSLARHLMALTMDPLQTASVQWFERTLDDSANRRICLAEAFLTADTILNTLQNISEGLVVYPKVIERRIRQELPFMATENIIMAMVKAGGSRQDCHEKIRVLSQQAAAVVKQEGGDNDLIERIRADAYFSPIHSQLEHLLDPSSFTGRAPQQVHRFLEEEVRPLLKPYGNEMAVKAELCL", "test": "Assay of adenylosuccinate lyase, cardiac enzyme", "format": "biochemical, C57BL/6J mice", "description": "(§1) Preparation and Assay of Adenylosuccinate Lyase--Six-week-old C57BL/6J mice were killed, and the hearts and gastrocnemius muscles were excised, weighed, and homogenized to a slurry in 4 volumes of 50 mM Tris-HCl, pH 7.4 at 25° C. containing 1 mM EDTA and 1 mM β-mercaptoethanol in a TenBroeck glass homogenizer. The homogenate was centrifuged at 10,000×g for 15 min and the supernatant was dialyzed against 1,000 volumes of the extraction buffer for 2 h at 4° C. The lyase activity was partially stabilized by the addition of EDTA and β-mercaptoethanol, but some activity was lost even on storage at -70° C.\n(§2) The assays were carried out at pH 7.4 were reaction mixtures that contained 50 mM Tris-HCl buffer, 1 mM EDTA, 1 mM β-mercaptoethanol, 20 μM adenylosuccinate, and the enzyme extract (protein concentration, 0.13-0.20 mg/ml). The decrease in absorbance at 280 nm was measured using a Gilford recording spectrophotometer. All assays were done at 25° C. and were linear with respect to time of incubation and with the amount of protein in extract added to the assay.\n(§3) These are average values for experiments with 4 separate enzyme preparations. The experimental points in the double reciprocal plots were fitted to the best line by the method of least squares with all points being weighted equally."}, "[2]": {"biological_target": "T2, adenylosuccinate lyase (skeletal muscle) (Mus musculus, UniProt P54822)", "T2 construct": "the hearts and gastrocnemius muscles were excised, weighed, and homogenized to a slurry; from tissue; host or cells: gastrocnemius (skeletal) muscle of six-week-old C57BL/6J mice; dialyzed 10,000×g supernatant", "T2 sequence (P54822 2-484 limits assumed)": "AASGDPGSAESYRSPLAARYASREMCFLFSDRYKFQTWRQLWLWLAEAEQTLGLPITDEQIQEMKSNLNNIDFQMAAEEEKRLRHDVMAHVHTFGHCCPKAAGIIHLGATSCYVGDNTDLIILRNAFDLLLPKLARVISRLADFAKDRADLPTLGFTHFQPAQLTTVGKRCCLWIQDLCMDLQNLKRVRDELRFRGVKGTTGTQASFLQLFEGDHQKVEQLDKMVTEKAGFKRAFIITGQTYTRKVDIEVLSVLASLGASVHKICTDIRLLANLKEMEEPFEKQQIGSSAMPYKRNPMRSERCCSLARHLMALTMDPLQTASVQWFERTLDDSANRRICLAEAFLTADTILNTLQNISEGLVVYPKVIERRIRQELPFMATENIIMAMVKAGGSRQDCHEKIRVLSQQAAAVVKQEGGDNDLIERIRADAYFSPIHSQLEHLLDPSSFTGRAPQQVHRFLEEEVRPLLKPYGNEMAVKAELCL", "test": "Assay of adenylosuccinate lyase, skeletal muscle enzyme", "format": "biochemical, C57BL/6J mice", "description": "as §1, §2, §3"}, "[3]": {"substrate": "O=C(O)C[C@H](Nc1ncnc2c1ncn2[C@@H]1O[C@H](COP(=O)(O)O)[C@@H](O)[C@H]1O)C(=O)O", "test": "Assay of adenylosuccinate lyase, cardiac enzyme", "format": "biochemical, C57BL/6J mice", "conditions": "other: cardiac muscle enzyme, pH 7.4, 25° C., 4 enzyme preparations", "description": "as §1, §2, §3"}, "[4]": {"substrate": "O=C(O)C[C@H](Nc1ncnc2c1ncn2[C@@H]1O[C@H](COP(=O)(O)O)[C@@H](O)[C@H]1O)C(=O)O", "test": "Assay of adenylosuccinate lyase, skeletal muscle enzyme", "format": "biochemical, C57BL/6J mice", "conditions": "other: skeletal muscle enzyme, pH 7.4, 25° C., 4 enzyme preparations", "description": "as §1, §2, §3"}}, "note": "Entries after “also recorded” stand apart in the source; their conditions may differ.", "data": [{"molecule": "O=c1[nH]cnc2nc[nH]c12", "note": "[hypoxanthine]", "values": [{"measurement": "hemodynamic effects", "setting": "cardiovascular system", "value": "deleterious hemodynamic effects"}]}, {"molecule": "Nc1ncnc2c1ncn2[C@@H]1O[C@H](CO)[C@@H](O)[C@H]1O", "note": "[adenosine]", "values": [{"measurement": "hemodynamic effects", "setting": "cardiovascular system", "value": "profound changes in the hemodynamic status; also recorded: deleterious hemodynamic effects"}]}, {"molecule": "OC[C@H]1O[C@@H](n2cnc3c(O)ncnc32)[C@H](O)[C@@H]1O", "note": "[inosine]", "values": [{"measurement": "hemodynamic effects", "setting": "cardiovascular system", "value": "deleterious hemodynamic effects"}]}, {"molecule": "NC(=O)c1ncn([C@@H]2O[C@H](COP(=O)(O)O)[C@@H](O)[C@H]2O)c1N", "note": "[AICAR, 5-Amino-4-imidazolecarboxamide Ribotide]", "values": [{"measurement": "Ki", "setting": "[1]", "value": "4.5 ± 1.7", "unit": "µM"}, {"measurement": "maximal AICAR concentration exceeding Ki of adenylosuccinate lyase", "setting": "[1]; cardiac muscle", "value": 180, "unit": "fold"}, {"measurement": "Ki", "setting": "[2]", "value": "7.6 ± 3.2", "unit": "µM"}, {"measurement": "maximal AICAR concentration exceeding Ki of adenylosuccinate lyase", "setting": "[2]; skeletal muscle", "value": 18, "unit": "fold"}]}, {"molecule": "adenylosuccinate lyase (cardiac muscle) (Mus musculus) (protein, the hearts and gastrocnemius muscles were excised, weighed, and homogenized to a slurry; from tissue; host or cells: heart of six-week-old C57BL/6J mice; dialyzed 10,000×g supernatant) AASGDPGSAESYRSPLAARYASREMCFLFSDRYKFQTWRQLWLWLAEAEQTLGLPITDEQIQEMKSNLNNIDFQMAAEEEKRLRHDVMAHVHTFGHCCPKAAGIIHLGATSCYVGDNTDLIILRNAFDLLLPKLARVISRLADFAKDRADLPTLGFTHFQPAQLTTVGKRCCLWIQDLCMDLQNLKRVRDELRFRGVKGTTGTQASFLQLFEGDHQKVEQLDKMVTEKAGFKRAFIITGQTYTRKVDIEVLSVLASLGASVHKICTDIRLLANLKEMEEPFEKQQIGSSAMPYKRNPMRSERCCSLARHLMALTMDPLQTASVQWFERTLDDSANRRICLAEAFLTADTILNTLQNISEGLVVYPKVIERRIRQELPFMATENIIMAMVKAGGSRQDCHEKIRVLSQQAAAVVKQEGGDNDLIERIRADAYFSPIHSQLEHLLDPSSFTGRAPQQVHRFLEEEVRPLLKPYGNEMAVKAELCL", "values": [{"measurement": "Km", "setting": "[3]", "value": "2.2 ± 0.3", "unit": "µM"}]}, {"molecule": "adenylosuccinate lyase (skeletal muscle) (Mus musculus) (protein, the hearts and gastrocnemius muscles were excised, weighed, and homogenized to a slurry; from tissue; host or cells: gastrocnemius (skeletal) muscle of six-week-old C57BL/6J mice; dialyzed 10,000×g supernatant) AASGDPGSAESYRSPLAARYASREMCFLFSDRYKFQTWRQLWLWLAEAEQTLGLPITDEQIQEMKSNLNNIDFQMAAEEEKRLRHDVMAHVHTFGHCCPKAAGIIHLGATSCYVGDNTDLIILRNAFDLLLPKLARVISRLADFAKDRADLPTLGFTHFQPAQLTTVGKRCCLWIQDLCMDLQNLKRVRDELRFRGVKGTTGTQASFLQLFEGDHQKVEQLDKMVTEKAGFKRAFIITGQTYTRKVDIEVLSVLASLGASVHKICTDIRLLANLKEMEEPFEKQQIGSSAMPYKRNPMRSERCCSLARHLMALTMDPLQTASVQWFERTLDDSANRRICLAEAFLTADTILNTLQNISEGLVVYPKVIERRIRQELPFMATENIIMAMVKAGGSRQDCHEKIRVLSQQAAAVVKQEGGDNDLIERIRADAYFSPIHSQLEHLLDPSSFTGRAPQQVHRFLEEEVRPLLKPYGNEMAVKAELCL", "values": [{"measurement": "Km", "setting": "[4]", "value": "4.5 ± 1.5", "unit": "µM"}]}]}
